Where “and” joins values, the source holds several entries; their conditions need not be identical. Equal values may be shown once.
Key:
[1] = biological target: T1, PBRM1-BD2 (Homo sapiens (Human), UniProt Q86U86); experiment: biochemical; assay type: binding; details: read-out: Kd
Description: Protein-detected NMR-based fragment screening has the advantage of providing information about both binding affinity and the amino acid residues involved in binding.
NMR spectroscopy. Automated NMR data collection was performed on ^15N-labeled PBRM1-BD2 (50 μM) by using ^1H,^15N SOFAST-HMQC experiments. […] The total time for screening 85 or 82 samples each containing 12 fragments or DMSO by ^1H,^15N SOFAST-HMQC was 46 h (˜32 min/sample). […] All NMR data were processed using NMRPipe^4 in NMRbox.^5 Spectra were processed by using in-house automated Python scripts in NMRPipe,^4 and chemical shifts perturbation were analyzed using SPARKY.^6 Total ^1H/^15N chemical shift perturbations and equilibrium dissociation constants (Kd) were calculated as reported.^2

[2] = biological target: T1, PBRM1-BD2; experiment: biochemical; assay type: binding; details: for ΔTm at 100 µM: read-out: PBRM1-BD2 ΔTm, DSF, 10 μM protein, 100 μM inhibitor, vs apoprotein
Description: DSF measures protein unfolding by monitoring the fluorescence of the SYPRO Orange dye as a function of temperature; positive thermal shifts indicate ligand binding induced stabilization of the protein.
(§1) Differential Scanning Fluorimetry (DSF). Bromodomain DSF Tm assays were performed using an Mx3005P (Stratagene) PCR detection system and low profile 96-well PCR plates (UltraFlux, Flat Top, SSI 3400-00S). […] The temperature was raised by 1° C./min from 25-95° C., and fluorescence readings were taken at each interval. Melting curves were analyzed using our online interactive fitting tool for thermofluor experiments (https://dsf-analysis.herokuapp.com/DSF-analysis) and plotted using GraphPad Prism.

[3] = biological target: ASH1L (Homo sapiens (Human), UniProt Q9NR48); experiment: DSF selectivity profiling; assay type: binding
Description: as §1

[4] = biological target: BRD2-BD2 (Homo sapiens (Human), UniProt P25440); experiment: DSF selectivity profiling; assay type: binding
BRD2-BD2, sequence (P25440 344-453): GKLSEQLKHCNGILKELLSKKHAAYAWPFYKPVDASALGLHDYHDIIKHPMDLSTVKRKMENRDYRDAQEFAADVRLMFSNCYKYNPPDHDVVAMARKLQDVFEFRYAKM
Description: as §1

[5] = biological target: BRD3-BD1 (Homo sapiens (Human), UniProt Q15059); experiment: DSF selectivity profiling; assay type: binding
BRD3-BD1, sequence (Q15059 34-140): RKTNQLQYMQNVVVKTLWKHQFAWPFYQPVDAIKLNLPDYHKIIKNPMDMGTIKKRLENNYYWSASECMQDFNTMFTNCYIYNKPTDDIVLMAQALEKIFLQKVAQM
Description: as §1

[6] = biological target: BRD3-BD2 (Homo sapiens (Human), UniProt Q15059); experiment: DSF selectivity profiling; assay type: binding
BRD3-BD2, sequence (Q15059 306-415): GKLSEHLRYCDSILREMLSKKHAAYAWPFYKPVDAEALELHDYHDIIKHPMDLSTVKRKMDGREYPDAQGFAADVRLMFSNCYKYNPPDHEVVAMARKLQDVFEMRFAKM
Description: as §1

[7] = biological target: BRD4-BD1 (Homo sapiens (Human), UniProt O60885); experiment: DSF selectivity profiling; assay type: binding
Description: as §1

[8] = biological target: BRD4-BD2 (Homo sapiens (Human), UniProt O60885); experiment: DSF selectivity profiling; assay type: binding
Description: as §1

[9] = biological target: BRD7 (Homo sapiens (Human), UniProt Q9NPI1); experiment: DSF selectivity profiling; assay type: binding
BRD7, sequence (Q9NPI1 131-235): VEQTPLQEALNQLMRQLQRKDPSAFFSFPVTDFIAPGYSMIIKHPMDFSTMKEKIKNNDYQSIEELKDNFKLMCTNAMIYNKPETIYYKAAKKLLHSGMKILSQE
Description: as §1

[10] = biological target: BRDT-BD1 (Homo sapiens (Human), UniProt Q58F21); experiment: DSF selectivity profiling; assay type: binding
Description: as §1

[11] = biological target: CECR2 (Homo sapiens (Human), UniProt Q9BXF3); experiment: DSF selectivity profiling; assay type: binding
CECR2, sequence (Q9BXF3 434-538): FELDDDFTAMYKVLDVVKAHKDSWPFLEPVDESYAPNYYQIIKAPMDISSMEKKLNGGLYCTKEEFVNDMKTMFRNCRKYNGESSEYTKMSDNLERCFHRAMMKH
Description: as §1

[12] = biological target: CREBBP (Homo sapiens (Human), UniProt Q92793); experiment: DSF selectivity profiling; assay type: binding
CREBBP, sequence (Q92793 1085-1192): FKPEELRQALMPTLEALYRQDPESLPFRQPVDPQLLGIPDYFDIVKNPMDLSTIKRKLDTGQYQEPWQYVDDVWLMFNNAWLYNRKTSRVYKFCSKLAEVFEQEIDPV
Description: as §1

[13] = biological target: PBRM1-BD1 (Homo sapiens (Human), UniProt Q86U86); experiment: DSF selectivity profiling; assay type: binding
PBRM1-BD1, sequence (Q86U86 41-151): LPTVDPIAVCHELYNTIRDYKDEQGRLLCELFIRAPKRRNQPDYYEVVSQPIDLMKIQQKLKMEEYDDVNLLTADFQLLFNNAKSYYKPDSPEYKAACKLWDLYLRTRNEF
Description: as §1

[14] = biological target: PBRM1-BD3 (Homo sapiens (Human), UniProt Q86U86); experiment: DSF selectivity profiling; assay type: binding
PBRM1-BD3, sequence (Q86U86 381-487): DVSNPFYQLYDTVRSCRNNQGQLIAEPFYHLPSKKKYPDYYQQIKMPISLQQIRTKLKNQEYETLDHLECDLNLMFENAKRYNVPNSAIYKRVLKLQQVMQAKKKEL
Description: as §1

[15] = biological target: PBRM1-BD4 (Homo sapiens (Human), UniProt Q86U86); experiment: DSF selectivity profiling; assay type: binding
PBRM1-BD4, sequence (Q86U86 518-625): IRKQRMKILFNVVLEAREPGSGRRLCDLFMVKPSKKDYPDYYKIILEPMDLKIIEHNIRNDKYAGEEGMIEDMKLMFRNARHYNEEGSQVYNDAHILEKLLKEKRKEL
Description: as §1

[16] = biological target: PBRM1-BD6 (Homo sapiens (Human), UniProt Q86U86); experiment: DSF selectivity profiling; assay type: binding
PBRM1-BD6, sequence (Q86U86 769-879): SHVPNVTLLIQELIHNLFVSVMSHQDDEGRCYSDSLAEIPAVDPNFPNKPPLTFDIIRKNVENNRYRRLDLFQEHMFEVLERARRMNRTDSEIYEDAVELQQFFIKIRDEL
Description: as §1

[17] = biological target: PCAF (Homo sapiens (Human), UniProt Q92831); experiment: DSF selectivity profiling; assay type: binding
PCAF, sequence (Q92831 723-827): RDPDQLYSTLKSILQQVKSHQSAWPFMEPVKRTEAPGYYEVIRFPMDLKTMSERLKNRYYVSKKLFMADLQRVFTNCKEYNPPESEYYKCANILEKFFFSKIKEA
Description: as §1

[18] = biological target: SMARCA2 (Homo sapiens (Human), UniProt P51531); experiment: DSF selectivity profiling; assay type: binding
SMARCA2, sequence (P51531 1378-1506): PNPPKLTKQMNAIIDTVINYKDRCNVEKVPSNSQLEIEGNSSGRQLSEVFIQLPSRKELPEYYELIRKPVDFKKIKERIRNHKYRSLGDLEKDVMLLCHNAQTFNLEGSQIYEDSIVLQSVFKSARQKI
Description: as §1

[19] = biological target: SMARCA4 (Homo sapiens (Human), UniProt P51532); experiment: DSF selectivity profiling; assay type: binding
SMARCA4, sequence (P51532 1453-1564): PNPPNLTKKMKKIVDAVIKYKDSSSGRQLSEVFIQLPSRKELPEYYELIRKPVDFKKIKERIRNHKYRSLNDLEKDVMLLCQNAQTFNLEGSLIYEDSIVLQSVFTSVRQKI
Description: as §1

[20] = biological target: TRIM33A (Homo sapiens (Human), UniProt Q9UPN9); experiment: DSF selectivity profiling; assay type: binding
TRIM33A, sequence (Q9UPN9 957-1080): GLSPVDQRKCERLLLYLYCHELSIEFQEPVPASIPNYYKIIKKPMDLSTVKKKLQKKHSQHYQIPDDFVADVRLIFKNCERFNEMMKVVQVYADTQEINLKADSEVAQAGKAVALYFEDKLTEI
Description: as §1

[21] = biological target: p300 (Homo sapiens (Human), UniProt Q09472); experiment: DSF selectivity profiling; assay type: binding
p300, sequence (Q09472 1049-1156): as the sequence (Q92793 1085-1192) above, with N47S, V73I, F93Y, A98S counted along it
Description: as §1

[22] = system: PC3 cells; experiment: Cell viability assay (CellTiter-Glo); assay type: cell-based, human; details: 10, 1 and 0.1 μM
Description: (§2) Cell Viability Assays. Cells were seeded in a 96-well plate and incubated for 12-24 h prior to initial treatment. The number of cells per well was chosen empirically based on cell growth rates (LNCaP-5,000 cells/well, PC3 and RWPE-1-3,000 cells per well, HEK293T-1,000 cells/well). Cells were treated with either DMSO control or serial dilutions of inhibitors and media with compound was refreshed every 48 h.

[23] = system: RWPE-1 cells; experiment: Cell viability assay (CellTiter-Glo); assay type: cell-based, human; details: 10, 1 and 0.1 μM
Description: as §2

[24] = biological target: PBRM1-BD5 (Homo sapiens (Human), UniProt Q86U86); details: DSF
PBRM1-BD5, sequence (Q86U86 653-763): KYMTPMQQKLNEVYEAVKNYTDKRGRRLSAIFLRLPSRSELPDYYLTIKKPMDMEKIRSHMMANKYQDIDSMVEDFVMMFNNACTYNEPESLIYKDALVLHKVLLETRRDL

[25] = Solubility at concentrations tested in the AlphaScreen assay
Description: AlphaScreen. […] All reagents were diluted in Epigenetic Buffer (5×), 2 μM TCEP, and 0.5% v/v Tween-20. The assay used a final volume of 40 μL. Stock solutions of inhibitors in DMSO were made at eight different concentrations (100 mM, 10 mM, 1 mM, 300 μM, 100 μM, 30 μM, 10 μM, 3 μM). 0.4 μL of inhibitor DMSO stocks were further diluted to 10 μL in the buffer. […] The mixture (40 μL) was further incubated for 1 h in a dark room and the luminescence was read on a BioTek Cytation5 Imaging Reader using an AlphaScreen detection filter cube. Data was plotted in GraphPad Prism using non-linear regression dose-response three variable slopes.

[26] = biological target: T1, PBRM1-BD2; experiment: AlphaScreen competition assay, His6-tagged PBRM1-BD2 and biotinylated H3K14ac peptide; assay type: binding; details: 0.2 μM His6-PBRM1-BD2, 0.1 μM biotinylated H3K14ac peptide

T1 sequence (Q86U86 177-287): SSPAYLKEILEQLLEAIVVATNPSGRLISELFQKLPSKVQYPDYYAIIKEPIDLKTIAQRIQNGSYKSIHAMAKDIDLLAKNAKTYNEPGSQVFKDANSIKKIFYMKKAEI

| Structure (SMILES) | ΔTm at 100 µM [2] [°C] | ASH1L ΔTm [3] [°C] | BRD2-BD2 ΔTm [4] [°C] | BRD3-BD1 ΔTm [5] [°C] | BRD3-BD2 ΔTm [6] [°C] | BRD4-BD1 ΔTm [7] [°C] | BRD4-BD2 ΔTm [8] [°C] | BRD7 ΔTm [9] [°C] | BRDT-BD1 ΔTm [10] [°C] | CECR2 ΔTm [11] [°C] | CREBBP ΔTm [12] [°C] | PCAF ΔTm [17] [°C] | SMARCA2 ΔTm [18] [°C] | TRIM33A ΔTm [20] [°C] | p300 ΔTm [21] [°C] | other results |
| --- | --- | --- | --- | --- | --- | --- | --- | --- | --- | --- | --- | --- | --- | --- | --- | --- |
| N#Cc1ncccc1N1CCCCC1 [Compound 6j] |  |  |  |  |  |  |  |  |  |  |  |  |  |  |  | Kd [1]: > 2000 µM |
| O=C1NC(c2c(F)cccc2Cl)Nc2cccc(Cl)c21 (stereo not shown) [Compound 11, 5-Chloro-2-(2-chloro-6-fluorophenyl)-2,3-dihydroquinazolin-4(1H)-one] | 4.4 ± 0.4 |  |  |  |  |  |  |  |  |  |  |  |  |  |  |  |
| Cc1cccc(C2NC(=O)c3c(Br)cccc3N2)c1 (stereo not shown) [Compound 34, 5-Bromo-2-(3-methylphenyl)-2,3-dihydroquinazolin-4(1H)-one] | > 6.2 | −0.4 | 0.5 | 0.4 | 0.5 | 0.3 | −1.1 | −0.4 | −0.4 | −0.6 | −0.2 | 0.6 | 0.3 | 0.1 | −0.1 | PBRM1-BD2 ΔTm ([2]; DSF, 10 μM protein, 100 μM inhibitor, vs apoprotein): 6.4 °C and 6.4 ± 0.2 °C; PBRM1-BD1 ΔTm [13]: 1.4 °C; PBRM1-BD3 ΔTm [14]: 0.6 °C; PBRM1-BD4 ΔTm [15]: 0.2 °C; PBRM1-BD6 ΔTm [16]: −2.4 °C; SMARCA4 ΔTm [19]: −0.2 °C; growth inhibition of PC3 cells [22]: do not inhibit the growth of PC3 and RWPE1 at tested concentrations; growth inhibition of RWPE1 cells [23]: do not inhibit the growth of PC3 and RWPE1 at tested concentrations; PBRM1-BD5 ΔTm [24]: ~1.5 °C |
| CN(C)/C=C1\CCn2c1nc(=O)c1c(Cl)cccc12 [Compound 2, (E)-6-Chloro-3-((dimethylamino)methylene)-2,3-dihydropyrrolo[1,2-a]quinazolin-5(1H)-one, reference compound] | 3.3 ± 0.4 | −0.7 | −0.2 | 0.1 | 0.5 | 0.1 | −0.6 | 1.2 | −0.1 | 2.0 | 0.1 | −0.2 | 2.2 | −0.9 | −0.6 | PBRM1-BD1 ΔTm [13]: −0.1 °C; PBRM1-BD3 ΔTm [14]: 2.6 °C; PBRM1-BD4 ΔTm [15]: 0.3 °C; PBRM1-BD6 ΔTm [16]: −1.4 °C; SMARCA4 ΔTm [19]: 2 °C; PBRM1-BD5 ΔTm [24]: 7.7 °C |
| Cc1cc(C)c(C2NC(=O)c3c(Cl)cccc3N2)c(C)c1 (stereo not shown) [Compound 22, 5-Chloro-2-(2,4,6-trimethylphenyl)-2,3-dihydroquinazolin-4(1H)-one] |  |  |  |  |  |  |  |  |  |  |  |  |  |  |  | solubility in the AlphaScreen assay [25]: solubility issues |
| Cc1cccc(C)c1C1NC(=O)c2c(Cl)cccc2N1 (stereo not shown) [Compound 26, 5-Chloro-2-(2,6-dimethylphenyl)-2,3-dihydroquinazolin-4(1H)-one] |  | −0.8 | 0.5 | 0.0 | 0.3 | 0 | −4.4 | 0.1 | −0.6 | 1.3 | 0.2 | 0.6 | 0.5 | 0.5 | 0.2 |  |
| O=C(O)c1ccc(Cl)c2c(=O)c3ccccc3[nH]c12 [Compound 38, 1-Chloro-9-oxo-9,10-dihydroacridine-4-carboxylic acid] | 0 |  |  |  |  |  |  |  |  |  |  |  |  |  |  | IC50 [26]: > 250 µM |
